The results in this text go back to patent US9963684B2 (priority 2014, dated 2018).

This assay has as its system formaldehyde dehydrogenase. The format is biochemical, Burkholderia multivorans.
Where [1] appears, read: metal ion 1 mM in enzyme reaction solution.
[2] abbreviates: metal ion 5 mM in enzyme reaction solution.

Where “and” joins values, the source holds several entries; their conditions need not be identical. Identical values can stand only once. Like-named read-outs stand apart in the source and are kept apart here.

Consider `[Cl-].[Cl-].[Co+2]` [CoCl2], for which the “Relative activity (%)” value is 58.39% and 72.60%.
For the compound `O=S(=O)([O-])[O-].[Cu+2]` [CuSO4], the “Relative activity (%)” value reads like this: under setting [1], 124.3%; under setting [2], 91.30%.
For `[Cl-].[K+]` [KCl], in that order: 104.0% and 94.49%.
On the same counts, the results for `[Cl][Mn][Cl]` [MnCl2] are 62.32% and 111.6%.
Turning to `[Ba+2].[Cl-].[Cl-]` [BaCl2], the “Relative activity (%)” value reads like this: under setting [1], 98.55%; under setting [2], 115.1%.
As to `[Cl-].[Cl-].[Mg+2]` [MgCl2], where the note is “5 frill Mg^2+”, the “enzyme activity in the presence of metal ion versus without it” value is reported as 2.7 times. Moreover, the “Relative activity (%)” value by setting is: under setting [1], 147.8%; under setting [2], 269.6%.
As to `[Cl-].[Cl-].[Zn+2]` [ZnCl2], the “Relative activity (%)” value worked out at 63.99% under setting [1] and 192.2% under setting [2].
For `[Ca+2].[Cl-].[Cl-]` [CaCl2], in that order: 50.67% and 75.96%.
